Usually inhibition stands for the share of the control response that was lost under treatment.

Assay [1] addresses Mitogen-activated protein kinase kinase kinase 10 (Homo sapiens) (UniProt Q02779). Kind of assay: Inhibition of human recombinant MLK2 at 15 nM in presence of ATP by radiometric assay relative to control.
The target in assay [2] is [Pyruvate dehydrogenase (acetyl-transferring)] kinase isozyme 4, mitochondrial (Homo sapiens) (UniProt Q16654). Kind of assay: Inhibition of human recombinant PDHK4 at 15 nM in presence of ATP by radiometric assay relative to control.
In assay [3] the target is T1, Serine/threonine-protein kinase TAO3 (Homo sapiens) (UniProt Q9H2K8).
T1 sequence (whole entry): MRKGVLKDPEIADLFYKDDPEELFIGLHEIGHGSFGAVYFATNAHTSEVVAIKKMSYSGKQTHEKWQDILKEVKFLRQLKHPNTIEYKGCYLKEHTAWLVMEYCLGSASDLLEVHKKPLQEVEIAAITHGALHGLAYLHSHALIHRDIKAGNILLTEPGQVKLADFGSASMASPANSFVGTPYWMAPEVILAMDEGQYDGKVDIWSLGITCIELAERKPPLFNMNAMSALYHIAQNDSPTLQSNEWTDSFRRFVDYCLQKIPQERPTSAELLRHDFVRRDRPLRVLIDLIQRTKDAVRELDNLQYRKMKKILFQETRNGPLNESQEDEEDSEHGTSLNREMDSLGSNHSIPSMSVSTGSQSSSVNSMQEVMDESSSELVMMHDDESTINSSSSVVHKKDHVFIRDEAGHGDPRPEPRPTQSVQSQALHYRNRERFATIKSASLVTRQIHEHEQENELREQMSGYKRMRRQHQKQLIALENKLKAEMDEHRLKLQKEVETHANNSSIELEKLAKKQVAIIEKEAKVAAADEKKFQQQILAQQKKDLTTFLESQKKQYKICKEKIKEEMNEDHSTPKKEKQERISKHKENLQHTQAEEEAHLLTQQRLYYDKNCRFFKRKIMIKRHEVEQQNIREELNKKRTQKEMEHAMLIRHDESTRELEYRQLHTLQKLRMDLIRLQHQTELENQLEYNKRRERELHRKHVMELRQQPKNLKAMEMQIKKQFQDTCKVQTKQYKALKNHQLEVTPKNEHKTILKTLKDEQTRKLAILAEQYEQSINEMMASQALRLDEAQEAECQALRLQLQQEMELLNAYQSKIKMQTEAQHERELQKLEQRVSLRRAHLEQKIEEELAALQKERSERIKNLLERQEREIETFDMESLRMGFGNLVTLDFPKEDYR
Kind of assay: Inhibition of human recombinant TAO3 at 15 nM in presence of ATP by radiometric assay relative to control.

The target in assay [4] is Ribosomal protein S6 kinase alpha-6 (Homo sapiens) (UniProt Q9UK32). Kind of assay: Inhibition of human recombinant RSK4 at 15 nM related to control ULK1.
For assay [5], the target named is Serine/threonine-protein kinase PAK 1 (Homo sapiens) (UniProt Q13153). Kind of assay: Inhibition of human recombinant PAK1 at 15 nM related to control ULK1.
In assay [6] the target is Serine/threonine-protein kinase MARK1 (Homo sapiens) (UniProt Q9P0L2). Kind of assay: Inhibition of human recombinant MARK1 at 40 nM in presence of ATP by radiometric assay relative to control.
Assay [7] has as its target Ribosomal protein S6 kinase alpha-4 (Homo sapiens) (UniProt O75676). Kind of assay: Inhibition of human recombinant MSK2 at 40 nM related to control ULK1.
The target in assay [8] is Cyclin-dependent kinase-like 3 (Homo sapiens) (UniProt Q8IVW4). Kind of assay: Inhibition of human recombinant CDKL3 at 500 nM in presence of ATP by radiometric assay relative to control.
Assay [9] deals with Glycogen synthase kinase-3 beta (Homo sapiens) (UniProt P49841). Kind of assay: Inhibition of human recombinant GSK3B at 500 nM in presence of ATP by radiometric assay relative to control.
For assay [10], the target named is Serine/threonine-protein kinase 38-like (Homo sapiens) (UniProt Q9Y2H1). Kind of assay: Inhibition of human recombinant NDR2 at 500 nM in presence of ATP by radiometric assay relative to control.
The target in assay [11] is Serine/threonine-protein kinase SIK1 (Homo sapiens) (UniProt P57059). Kind of assay: Inhibition of human recombinant SIK at 500 nM in presence of ATP by radiometric assay relative to control.
Assay [12] addresses Serine/threonine-protein kinase WNK2 (Homo sapiens) (UniProt Q9Y3S1). Kind of assay: Inhibition of human recombinant Wnk2 at 500 nM related to control ULK1.

SMILES strings stand for the structures.

Serine/threonine-protein kinase PAK 1 (Homo sapiens), sequence (Q13153 whole entry, looked up): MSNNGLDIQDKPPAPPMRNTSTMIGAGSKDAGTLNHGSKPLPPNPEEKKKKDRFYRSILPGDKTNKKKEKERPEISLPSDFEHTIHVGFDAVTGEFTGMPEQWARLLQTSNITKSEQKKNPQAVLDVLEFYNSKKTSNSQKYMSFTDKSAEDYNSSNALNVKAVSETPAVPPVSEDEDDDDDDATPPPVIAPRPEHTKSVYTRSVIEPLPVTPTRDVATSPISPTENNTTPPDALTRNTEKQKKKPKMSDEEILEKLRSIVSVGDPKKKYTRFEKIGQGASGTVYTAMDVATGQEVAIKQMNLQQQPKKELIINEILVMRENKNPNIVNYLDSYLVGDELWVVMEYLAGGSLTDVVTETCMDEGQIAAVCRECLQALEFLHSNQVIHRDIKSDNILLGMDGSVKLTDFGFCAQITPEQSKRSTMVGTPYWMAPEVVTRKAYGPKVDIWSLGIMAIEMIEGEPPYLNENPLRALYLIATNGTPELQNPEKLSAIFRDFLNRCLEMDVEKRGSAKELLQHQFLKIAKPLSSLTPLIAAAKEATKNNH
Cyclin-dependent kinase-like 3 (Homo sapiens), sequence (Q8IVW4 whole entry, looked up): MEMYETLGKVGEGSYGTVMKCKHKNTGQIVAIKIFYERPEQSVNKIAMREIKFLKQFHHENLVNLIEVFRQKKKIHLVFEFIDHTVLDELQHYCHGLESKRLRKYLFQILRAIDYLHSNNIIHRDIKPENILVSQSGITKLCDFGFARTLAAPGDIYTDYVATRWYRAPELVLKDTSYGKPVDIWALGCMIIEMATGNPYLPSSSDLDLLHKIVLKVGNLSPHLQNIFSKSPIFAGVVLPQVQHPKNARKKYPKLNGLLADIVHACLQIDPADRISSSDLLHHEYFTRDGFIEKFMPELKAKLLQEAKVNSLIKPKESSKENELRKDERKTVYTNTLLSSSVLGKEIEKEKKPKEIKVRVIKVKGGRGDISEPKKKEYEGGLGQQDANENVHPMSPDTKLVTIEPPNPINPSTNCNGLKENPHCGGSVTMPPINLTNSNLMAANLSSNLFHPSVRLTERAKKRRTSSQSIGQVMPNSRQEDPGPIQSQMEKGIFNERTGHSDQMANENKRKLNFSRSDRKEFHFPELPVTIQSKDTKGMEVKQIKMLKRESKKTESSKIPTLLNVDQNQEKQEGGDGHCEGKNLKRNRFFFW
Serine/threonine-protein kinase 38-like (Homo sapiens), sequence (Q9Y2H1 2-464 limits assumed): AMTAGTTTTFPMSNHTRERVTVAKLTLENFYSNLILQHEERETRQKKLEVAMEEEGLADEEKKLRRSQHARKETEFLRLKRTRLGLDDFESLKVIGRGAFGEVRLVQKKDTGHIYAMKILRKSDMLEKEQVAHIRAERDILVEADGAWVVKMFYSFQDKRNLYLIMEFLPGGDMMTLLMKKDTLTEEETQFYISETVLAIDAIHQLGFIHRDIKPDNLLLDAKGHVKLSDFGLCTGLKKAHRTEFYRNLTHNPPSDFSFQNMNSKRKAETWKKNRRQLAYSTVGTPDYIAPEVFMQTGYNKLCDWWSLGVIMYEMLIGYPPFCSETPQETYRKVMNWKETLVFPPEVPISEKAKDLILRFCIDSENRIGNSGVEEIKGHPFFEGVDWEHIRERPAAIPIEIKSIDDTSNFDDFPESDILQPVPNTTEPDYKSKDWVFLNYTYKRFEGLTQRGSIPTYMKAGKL
Ribosomal protein S6 kinase alpha-4 (Homo sapiens), sequence (O75676 whole entry, looked up): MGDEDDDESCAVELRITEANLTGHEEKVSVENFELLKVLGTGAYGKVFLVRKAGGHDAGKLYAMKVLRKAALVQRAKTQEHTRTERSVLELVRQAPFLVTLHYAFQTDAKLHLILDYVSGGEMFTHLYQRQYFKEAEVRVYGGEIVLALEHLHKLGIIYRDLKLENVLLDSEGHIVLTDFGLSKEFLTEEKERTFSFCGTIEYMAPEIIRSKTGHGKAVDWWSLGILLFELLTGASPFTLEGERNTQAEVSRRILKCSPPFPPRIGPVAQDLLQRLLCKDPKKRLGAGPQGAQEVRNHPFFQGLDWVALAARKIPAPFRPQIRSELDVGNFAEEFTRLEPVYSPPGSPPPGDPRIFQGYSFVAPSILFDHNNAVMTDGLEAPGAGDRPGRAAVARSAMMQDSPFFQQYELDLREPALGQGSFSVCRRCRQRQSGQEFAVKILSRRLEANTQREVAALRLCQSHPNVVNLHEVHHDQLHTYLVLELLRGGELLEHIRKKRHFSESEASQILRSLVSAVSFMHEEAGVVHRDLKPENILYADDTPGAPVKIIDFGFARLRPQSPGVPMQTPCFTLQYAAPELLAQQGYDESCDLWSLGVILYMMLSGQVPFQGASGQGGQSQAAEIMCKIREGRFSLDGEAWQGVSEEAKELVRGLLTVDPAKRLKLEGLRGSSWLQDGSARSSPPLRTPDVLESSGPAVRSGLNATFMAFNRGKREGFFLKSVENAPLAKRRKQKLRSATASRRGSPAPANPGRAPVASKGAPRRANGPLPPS
Glycogen synthase kinase-3 beta (Homo sapiens), sequence (P49841 whole entry, looked up): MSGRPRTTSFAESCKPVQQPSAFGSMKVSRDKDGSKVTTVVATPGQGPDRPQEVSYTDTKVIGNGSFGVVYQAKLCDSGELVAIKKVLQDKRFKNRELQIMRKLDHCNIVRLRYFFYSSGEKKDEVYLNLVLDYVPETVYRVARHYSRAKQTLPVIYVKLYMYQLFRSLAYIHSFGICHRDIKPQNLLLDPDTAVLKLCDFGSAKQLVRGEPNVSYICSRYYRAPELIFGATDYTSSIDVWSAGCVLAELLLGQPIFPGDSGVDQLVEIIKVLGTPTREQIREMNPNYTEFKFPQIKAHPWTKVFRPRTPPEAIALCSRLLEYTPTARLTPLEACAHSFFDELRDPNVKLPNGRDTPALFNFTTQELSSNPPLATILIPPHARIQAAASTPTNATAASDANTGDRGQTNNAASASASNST
Serine/threonine-protein kinase MARK1 (Homo sapiens), sequence (Q9P0L2 whole entry, looked up): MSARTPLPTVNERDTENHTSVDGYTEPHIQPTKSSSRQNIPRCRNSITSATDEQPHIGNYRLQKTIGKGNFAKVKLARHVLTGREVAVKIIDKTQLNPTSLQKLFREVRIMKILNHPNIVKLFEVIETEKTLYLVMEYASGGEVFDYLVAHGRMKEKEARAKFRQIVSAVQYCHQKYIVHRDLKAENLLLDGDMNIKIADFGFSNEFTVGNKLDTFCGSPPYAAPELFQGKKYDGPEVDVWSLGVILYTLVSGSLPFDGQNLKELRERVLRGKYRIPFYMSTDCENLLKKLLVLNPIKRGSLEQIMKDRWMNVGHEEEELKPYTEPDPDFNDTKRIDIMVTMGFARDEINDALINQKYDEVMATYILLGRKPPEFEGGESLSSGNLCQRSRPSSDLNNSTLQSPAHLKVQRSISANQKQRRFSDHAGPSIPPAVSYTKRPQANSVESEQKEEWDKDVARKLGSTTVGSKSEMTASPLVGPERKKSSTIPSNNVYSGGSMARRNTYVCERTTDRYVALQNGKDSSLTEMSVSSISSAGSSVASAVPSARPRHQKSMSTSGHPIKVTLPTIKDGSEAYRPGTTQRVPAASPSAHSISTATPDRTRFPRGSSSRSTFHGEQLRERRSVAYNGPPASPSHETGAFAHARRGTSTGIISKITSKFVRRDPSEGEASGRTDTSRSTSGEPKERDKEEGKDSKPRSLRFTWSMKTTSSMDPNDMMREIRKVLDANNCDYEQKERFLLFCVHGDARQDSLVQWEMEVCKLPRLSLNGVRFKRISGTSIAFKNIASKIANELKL
Serine/threonine-protein kinase SIK1 (Homo sapiens), sequence (P57059 whole entry): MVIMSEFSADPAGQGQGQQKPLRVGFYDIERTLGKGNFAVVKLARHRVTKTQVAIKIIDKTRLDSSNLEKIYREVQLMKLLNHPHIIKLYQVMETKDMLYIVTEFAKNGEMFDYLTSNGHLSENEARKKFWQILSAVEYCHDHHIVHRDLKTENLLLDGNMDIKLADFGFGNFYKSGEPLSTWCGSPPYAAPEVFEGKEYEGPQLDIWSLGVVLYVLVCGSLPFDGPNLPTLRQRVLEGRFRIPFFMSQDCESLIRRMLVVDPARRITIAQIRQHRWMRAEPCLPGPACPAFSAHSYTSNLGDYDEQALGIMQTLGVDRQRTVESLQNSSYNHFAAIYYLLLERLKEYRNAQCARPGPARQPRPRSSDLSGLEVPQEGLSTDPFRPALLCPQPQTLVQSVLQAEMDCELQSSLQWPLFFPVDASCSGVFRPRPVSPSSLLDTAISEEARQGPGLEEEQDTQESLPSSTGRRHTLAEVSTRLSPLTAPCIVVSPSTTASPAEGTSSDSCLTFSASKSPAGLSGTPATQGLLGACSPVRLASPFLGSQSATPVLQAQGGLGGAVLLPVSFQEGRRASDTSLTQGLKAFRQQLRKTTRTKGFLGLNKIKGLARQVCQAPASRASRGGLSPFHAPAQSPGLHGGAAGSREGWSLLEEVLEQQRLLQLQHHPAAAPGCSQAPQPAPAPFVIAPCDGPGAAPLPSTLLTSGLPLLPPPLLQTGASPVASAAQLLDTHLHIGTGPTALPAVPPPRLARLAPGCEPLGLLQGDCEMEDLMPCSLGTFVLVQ
[Pyruvate dehydrogenase (acetyl-transferring)] kinase isozyme 4, mitochondrial (Homo sapiens), sequence (Q16654 whole entry, looked up): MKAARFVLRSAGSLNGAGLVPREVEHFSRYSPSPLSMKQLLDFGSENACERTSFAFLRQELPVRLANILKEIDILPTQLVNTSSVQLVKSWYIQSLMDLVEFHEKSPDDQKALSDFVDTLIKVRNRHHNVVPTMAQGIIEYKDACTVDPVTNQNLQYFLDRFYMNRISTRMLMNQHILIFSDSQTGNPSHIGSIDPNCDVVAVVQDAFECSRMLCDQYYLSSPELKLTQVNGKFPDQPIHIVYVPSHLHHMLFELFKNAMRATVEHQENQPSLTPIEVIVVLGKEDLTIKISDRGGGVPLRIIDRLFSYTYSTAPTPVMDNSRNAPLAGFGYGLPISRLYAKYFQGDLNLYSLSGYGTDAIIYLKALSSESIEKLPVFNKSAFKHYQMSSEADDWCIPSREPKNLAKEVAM

In the case of `CC(C)[C@H](NC(=O)c1cc(-c2cnn3cc(-c4ccc(OCCN5CCCCC5)cc4)cnc23)cs1)C(F)(F)F`, the inhibition in assay [1] worked out at 12%; in [2], 2%; in [3] it was 1%. Moreover, the fold change (FC) in assay [4] and in assay [5] was 0 each time.
For the compound `O=C(N[C@@H](C1CC1)C(F)(F)F)c1cc(-c2cnn3cc(-c4ccc(F)cc4)cnc23)cs1`, the inhibition in assay [6] was found to be 29%. Further, in [7], the fold change (FC) came to 0.
As to `CNC(=O)c1ccccc1Oc1nc(Nc2cc(OC)c(OC)c(OC)c2)ncc1Br`, the inhibition in assay [8] is 0%; in assay [9], 0%; in assay [10], 15%; in assay [11], 20%. Moreover, the fold change (FC) in assay [12] stood at 0.01.

The values above are taken from ChEMBL document CHEMBL5653631, “A Potent and Selective ULK1 Inhibitor Suppresses Autophagy and Sensitizes Cancer Cells to Nutrient Stress” (iScience, 2018).
